Measured values taken from ChEMBL document CHEMBL1201862, “PubChem BioAssay data set” (2004).
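Assay format: 96-well plates, 48-hour exposure. GI50 marks 50% less growth.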 Active and inactive are the calls of the source. No stated cut-off is given here; in the data, active = GI50 up to about 1.1 µM and inactive = higher.

Columns and labels:
Assay in all cases: NCI-60 cell line screen, 48 h
RPMI-8226 = system: RPMI-8226
MDA-MB-435 = system: MDA-MB-435
UACC-257 = system: UACC-257
A498 = system: A498
HOP-62 = system: HOP-62
786-0 = system: 786-0
HOP-92 = system: HOP-92
EKVX = system: EKVX
M14 = system: M14
OVCAR-3 = system: OVCAR-3
SK-OV-3 = system: SK-OV-3
SK-MEL-28 = system: SK-MEL-28
UO-31 = system: UO-31
NCI-H23 = system: NCI-H23
A549 = system: A549
SNB-19 = system: SNB-19
DU-145 = system: DU-145
MDA-MB-231 = system: MDA-MB-231
MCF7 = system: MCF7
SR = system: SR
LOX IMVI = system: LOX IMVI
HT-29 = system: HT-29
SK-MEL-5 = system: SK-MEL-5
Hs-578T = system: Hs-578T
SNB-75 = system: SNB-75
IGROV-1 = system: IGROV-1
CCRF-CEM = system: CCRF-CEM
HCT-15 = system: HCT-15
HL-60 = system: HL-60
NCI-H460 = system: NCI-H460
TK-10 = system: TK-10
MDA-N = system: MDA-N
SF-268 = system: SF-268
ACHN = system: ACHN
SK-MEL-2 = system: SK-MEL-2
SW-620 = system: SW-620
UACC-62 = system: UACC-62
CAKI-1 = system: CAKI-1
RXF 393 = system: RXF 393
HCC 2998 = system: HCC 2998
KM12 = system: KM12
U-251 = system: U-251
NCI-H522 = system: NCI-H522
MOLT-4 = system: MOLT-4
PC-3 = system: PC-3
OVCAR-4 = system: OVCAR-4
COLO 205 = system: COLO 205
OVCAR-8 = system: OVCAR-8
Malme-3M = system: Malme-3M
NCI/ADR-RES = system: NCI/ADR-RES
OVCAR-5 = system: OVCAR-5
K562 = system: K562
BT-549 = system: BT-549
HCT-116 = system: HCT-116
SF-539 = system: SF-539
SF-295 = system: SF-295
SN12C = system: SN12C
NCI-H226 = system: NCI-H226
T47D = system: T47D

SMILES: O=P(O)(O)CN1CCNCCN(CP(=O)(O)O)CCNCC1
- GI50 (RPMI-8226): 5.97 µM (inactive)
- GI50 (MDA-MB-435): 12 µM (inactive)
- GI50 (UACC-257): 41.8 µM (inactive)
- GI50 (A498): 8.36 µM (inactive)
- GI50 (HOP-62): > 100 µM (inactive)
- GI50 (786-0): > 30.8 µM (inactive)
- GI50 (HOP-92): 3.78 µM (inactive)
- GI50 (EKVX): > 95.9 µM (inactive)
- GI50 (M14): 26.1 µM (inactive)
- GI50 (OVCAR-3): > 100 µM (inactive)
- GI50 (SK-OV-3): 8.87 µM (inactive)
- GI50 (SK-MEL-28): > 100 µM (inactive)
- GI50 (UO-31): > 100 µM (inactive)
- GI50 (NCI-H23): 10.1 µM (inactive)
- GI50 (A549): 8.22 µM (inactive)
- GI50 (SNB-19): > 100 µM (inactive)
- GI50 (DU-145): > 100 µM (inactive)
- GI50 (MDA-MB-231): > 100 µM (inactive)
- GI50 (MCF7): 6.97 µM (inactive)
- GI50 (SR): 1.79 µM (inactive)
- GI50 (LOX IMVI): 15.7 µM (inactive)
- GI50 (HT-29): 3.95 µM (inactive)
- GI50 (SK-MEL-5): 4.76 µM (inactive)
- GI50 (Hs-578T): > 100 µM (inactive)
- GI50 (SNB-75): > 51.6 µM (inactive)
- GI50 (IGROV-1): 6.52 µM (inactive)
- GI50 (CCRF-CEM): 3.52 µM (inactive)
- GI50 (HCT-15): 4.2 µM
- GI50 (HL-60): 2.79 µM (inactive)
- GI50 (NCI-H460): 3.24 µM (inactive)
- GI50 (TK-10): > 62.2 µM (inactive)
- GI50 (MDA-N): 13.5 µM (inactive)
- GI50 (SF-268): > 100 µM (inactive)
- GI50 (ACHN): > 100 µM (inactive)
- GI50 (SK-MEL-2): > 100 µM (inactive)
- GI50 (SW-620): 4.74 µM (inactive)
- GI50 (UACC-62): 7.74 µM (inactive)
- GI50 (CAKI-1): > 47.8 µM (inactive)
- GI50 (RXF 393): > 100 µM (inactive)
- GI50 (HCC 2998): 7.64 µM (inactive)
- GI50 (KM12): 6.84 µM (inactive)
- GI50 (U-251): > 24.4 µM (inactive)
- GI50 (NCI-H522): 9.38 µM (inactive)
- GI50 (MOLT-4): 4.66 µM (inactive)
- GI50 (PC-3): 24.9 µM (inactive)
- GI50 (OVCAR-4): > 71.3 µM (inactive)
- GI50 (COLO 205): 5.13 µM (inactive)
- GI50 (OVCAR-8): 6.68 µM (inactive)
- GI50 (Malme-3M): 20.9 µM (inactive)
- GI50 (NCI/ADR-RES): 35.2 µM (inactive)
- GI50 (OVCAR-5): 10 µM (inactive)
- GI50 (K562): 3.44 µM (inactive)
- GI50 (BT-549): > 100 µM (inactive)
- GI50 (HCT-116): 4.39 µM (inactive)
- GI50 (SF-539): 11.7 µM (inactive)
- GI50 (SF-295): > 100 µM (inactive)
- GI50 (SN12C): > 100 µM (inactive)

SMILES: O=C(O)CC1C(=O)OC2C3COC(=O)c4cc(O)c(O)c(O)c4-c4c(cc(O)c(O)c4O)C(=O)OC2C(OC(=O)c2cc(O)c(O)c4c2C1C(O)C(=O)O4)C(OC(=O)c1cc(O)c(O)c(O)c1)O3 (centres undefined)
- GI50 (RPMI-8226): 36.9 µM (inactive)
- GI50 (MDA-MB-435): 26.4 µM (inactive)
- GI50 (UACC-257): 34.1 µM (inactive)
- GI50 (A498): > 100 µM (inactive)
- GI50 (HOP-62): > 100 µM (inactive)
- GI50 (786-0): 18.5 µM (inactive)
- GI50 (HOP-92): 16.7 µM (inactive)
- GI50 (EKVX): 18 µM (inactive)
- GI50 (NCI-H226): 30.4 µM (inactive)
- GI50 (M14): 27.7 µM (inactive)
- GI50 (OVCAR-3): 18 µM (inactive)
- GI50 (SK-OV-3): 18.5 µM (inactive)
- GI50 (SK-MEL-28): 95.5 µM (inactive)
- GI50 (UO-31): 27.2 µM (inactive)
- GI50 (NCI-H23): 49.3 µM (inactive)
- GI50 (A549): 21.6 µM (inactive)
- GI50 (T47D): 59.8 µM (inactive)
- GI50 (SNB-19): > 100 µM (inactive)
- GI50 (DU-145): 36.4 µM (inactive)
- GI50 (MDA-MB-231): 26.2 µM (inactive)
- GI50 (MCF7): 16.9 µM (inactive)
- GI50 (SR): 33.7 µM (inactive)
- GI50 (LOX IMVI): 14 µM (inactive)
- GI50 (HT-29): 13.6 µM (inactive)
- GI50 (SK-MEL-5): > 100 µM (inactive)
- GI50 (Hs-578T): 56.5 µM (inactive)
- GI50 (SNB-75): 3.35 µM (inactive)
- GI50 (IGROV-1): 30.2 µM (inactive)
- GI50 (CCRF-CEM): 13.7 µM (inactive)
- GI50 (HCT-15): 17.5 µM
- GI50 (HL-60): 7.43 µM (inactive)
- GI50 (NCI-H460): 16 µM (inactive)
- GI50 (TK-10): > 100 µM (inactive)
- GI50 (MDA-N): 24.1 µM (inactive)
- GI50 (SF-268): 36.6 µM (inactive)
- GI50 (ACHN): 30.4 µM (inactive)
- GI50 (SK-MEL-2): > 100 µM (inactive)
- GI50 (SW-620): 28.8 µM (inactive)
- GI50 (CAKI-1): 17.3 µM (inactive)
- GI50 (RXF 393): 4.39 µM (inactive)
- GI50 (HCC 2998): > 100 µM (inactive)
- GI50 (KM12): 17 µM (inactive)
- GI50 (U-251): 23.9 µM (inactive)
- GI50 (NCI-H522): 15.9 µM (inactive)
- GI50 (MOLT-4): 27.3 µM (inactive)
- GI50 (PC-3): 33.8 µM (inactive)
- GI50 (OVCAR-4): 37.9 µM (inactive)
- GI50 (COLO 205): 35.1 µM (inactive)
- GI50 (OVCAR-8): 20.5 µM (inactive)
- GI50 (Malme-3M): > 100 µM (inactive)
- GI50 (NCI/ADR-RES): 16.7 µM (inactive)
- GI50 (OVCAR-5): 13.5 µM (inactive)
- GI50 (K562): 36.4 µM (inactive)
- GI50 (HCT-116): 14.6 µM (inactive)
- GI50 (SF-539): 52.5 µM (inactive)
- GI50 (SF-295): 27.8 µM (inactive)
- GI50 (SN12C): 17.5 µM (inactive)

SMILES: Sc1nnc(CNc2ccc(-c3nnc(S)n3-c3ccc(Cl)cc3)cc2)n1-c1ccc(Cl)cc1
- GI50 (RPMI-8226): 16.7 µM (inactive)
- GI50 (MDA-MB-435): 28.3 µM (inactive)
- GI50 (UACC-257): 41.2 µM (inactive)
- GI50 (A498): 55.2 µM (inactive)
- GI50 (HOP-62): 18.5 µM (inactive)
- GI50 (786-0): 26.9 µM (inactive)
- GI50 (HOP-92): 23.9 µM (inactive)
- GI50 (EKVX): 45.3 µM (inactive)
- GI50 (NCI-H226): 40.7 µM (inactive)
- GI50 (M14): 25.2 µM (inactive)
- GI50 (SK-OV-3): 34.4 µM (inactive)
- GI50 (SK-MEL-28): 25.8 µM (inactive)
- GI50 (UO-31): 16.4 µM (inactive)
- GI50 (NCI-H23): 39 µM (inactive)
- GI50 (A549): 31.6 µM (inactive)
- GI50 (SNB-19): 26.5 µM (inactive)
- GI50 (DU-145): 30.5 µM (inactive)
- GI50 (MDA-MB-231): 20.2 µM (inactive)
- GI50 (MCF7): 40.3 µM (inactive)
- GI50 (HT-29): 25.3 µM (inactive)
- GI50 (SK-MEL-5): 25.1 µM (inactive)
- GI50 (SNB-75): 39.7 µM (inactive)
- GI50 (IGROV-1): 3.21 µM (inactive)
- GI50 (HCT-15): 48 µM
- GI50 (NCI-H460): 31.4 µM (inactive)
- GI50 (TK-10): 37.2 µM (inactive)
- GI50 (MDA-N): 26.1 µM (inactive)
- GI50 (SF-268): 30.3 µM (inactive)
- GI50 (ACHN): 47.5 µM (inactive)
- GI50 (SK-MEL-2): 22.4 µM (inactive)
- GI50 (SW-620): 35.3 µM (inactive)
- GI50 (UACC-62): 25.2 µM (inactive)
- GI50 (CAKI-1): 19.4 µM (inactive)
- GI50 (RXF 393): 45.4 µM (inactive)
- GI50 (HCC 2998): 31.2 µM (inactive)
- GI50 (KM12): 18.5 µM (inactive)
- GI50 (U-251): 37.3 µM (inactive)
- GI50 (NCI-H522): 15.2 µM (inactive)
- GI50 (MOLT-4): 26.2 µM (inactive)
- GI50 (PC-3): 36 µM (inactive)
- GI50 (OVCAR-4): 29.5 µM (inactive)
- GI50 (COLO 205): 22.4 µM (inactive)
- GI50 (Malme-3M): 6.58 µM (inactive)
- GI50 (NCI/ADR-RES): > 100 µM (inactive)
- GI50 (OVCAR-5): 18.1 µM (inactive)
- GI50 (K562): 30.8 µM (inactive)
- GI50 (BT-549): 34.6 µM (inactive)
- GI50 (HCT-116): 15.2 µM (inactive)
- GI50 (SF-295): 26.9 µM (inactive)
- GI50 (SN12C): 24.2 µM (inactive)
